In article PMC3150281, “Two Group A Streptococcal Peptide Pheromones Act through Opposing Rgg Regulators to Control Biofilm Development” (PLoS Pathogens, 2011):

What was measured:
Pshp3 luxAB reporter = assay: Luciferase reporter assay, Pshp3-luxAB, with synthetic peptides; type: cell-based, Streptococcus pyogenes NZ131; conditions: for Induction of luciferase activity at Pshp3 / Induction of luciferase at Pshp3 in wild-type bacteria: 50 nM peptide in CDM; for Induction of luciferase activity at Pshp3: crude peptide (31-50% pure), DMSO vehicle control, representative of at least three experiments; for Induction of luciferase at Pshp3 in wild-type bacteria: wild-type reporter strain JCC174 (mutated shp3 start codon); for Response at Pshp3 in Δrgg2 strain: Δrgg2 reporter strain JCC175
Method: (§1) Figure 3 SHP stimulation of luciferase production. For panels A and C, overnight GAS cultures were diluted into CDM and followed for growth and light production over time. For panels B and D-H, reporter strains were grown to log-phase (OD600 between 0.3 and 0.5) and then diluted 13-fold into conditioned (panel B) or fresh CDM containing 50 nM of the indicated peptide (panels D-H). For all synthetic peptide experiments, DMSO was included as a vehicle control. Data shown are representative of at least three independent experiments. (A) Expression of shp3 under its own promoter from a multi-copy plasmid (pSHP3) induces luciferase expression at both Pshp2 (triangles) and Pshp3 (squares); pLZ12-Sp is the vector-only control. (B) Luciferase-inducing activity is present in a cell-free culture supernatant prepared from mid-log phase Δrgg3 donor (JCC131) but not in wild-type (NZ131) or Δrgg3-shp3 (JCC132)-conditioned supernatants; Δrgg3-shp3 (JCC159) was used as the reporter strain, and fresh medium was included as a control. (C) Luciferase activity of a Δrgg3-shp3 strain (JCC168) expressing truncated versions of shp3 indicates the importance of the C-terminus. All truncation plasmids were derived from pSHP3; pSHP3_17-23 includes a methionine to initiate translation. (D) Synthetic full-length (sSHP3) and C-terminal eight amino acids (sSHP3-C8), but not reverse peptide (sSHP3-rev), induce luciferase activity in a Δrgg3-shp3 reporter strain (JCC168). (E) Amino acid substitutions within the C-terminus of SHP3 alter its reporter-inducing activity in a Δrgg3-shp3 reporter strain (JCC168). sSHP3-C8: DIIIIVGG; the sequences of synthetic peptides with amino acids substitutions are shown in the panel legend. […] Reverse peptide (sSHP2-C8-rev) was included as a control. (G) sSHP3-C8 induces a sustained response from the Pshp2 reporter in the wild-type strain (BNL148), while luciferase activity of a Δrgg3-shp3 strain (BNL150) wanes. (H) Synthetic C8 peptides stimulate modest luciferase activity in Δrgg2 strains with integrated Pshp2 (solid lines; BNL152) or Pshp3 (dotted lines; JCC175) reporters.
(§2) For luciferase assays, isolated colonies from the strains of interest were picked from a freshly streaked plate, inoculated into THY broth and grown overnight at 30°C. In the morning, cells were diluted 100-fold into CDM and incubated at 37°C. At each time point, 50 µL of each culture was removed to an opaque 96-well plate, samples were exposed to decyl aldehyde (Sigma) fumes for one minute, and counts per second (CPS) were quantified using a Wallac 1450 microbeta scintillation counter; the optical density (OD) at 600 nm was also measured at each time point. Relative light units (RLU) were calculated by normalizing CPS to OD. For the conditioned media experiment, strains of interest were grown in CDM to an OD of 0.3 to 0.5, cells were spun down, and supernatants were passed through a 0.22 µm filter; log-phase Δrgg3-shp3 reporter cells (JCC159) were diluted 1∶12 into conditioned supernatants, and light activity and OD were monitored as described above. For experiments with synthetic peptides, reporter strains were grown to an OD of 0.3 to 0.5 and then diluted into fresh CDM containing the peptide of interest, and light activity and OD were monitored as described above.
Synthetic peptides were purchased from Neo-Peptide (Cambridge, MA). Purities of crude preparations used in luciferase assays ranged from 31% to 50%. 95% pure preparations were used for electrophoretic mobility shift assays (EMSA) as described below. All peptides were reconstituted as 2 mM stocks in DMSO and stored in aliquots at -80°C. Subsequent dilutions for working stocks (50 µM) were made in DMSO and stored at −20°C.

Pshp2 luxAB reporter = assay: Luciferase reporter assay, Pshp2-luxAB, with synthetic peptides; type: cell-based, Streptococcus pyogenes NZ131; conditions: for Induction of luciferase at Pshp2 in wild-type bacteria: wild-type reporter strain BNL148, 50 nM peptide in CDM; for Maximal induction at Pshp2 in Δrgg2 strain: Δrgg2 reporter strain BNL152
Method: as §1, §2
Synthetic peptides were purchased from Neo-Peptide (Cambridge, MA). Purities of crude preparations used in luciferase assays ranged from 31% to 50%. […]

Rgg3-Pshp3 DNA complex = assay: EMSA, effect of peptide on Rgg3 binding to Pshp3 probe; set-up: species or system Streptococcus pyogenes NZ131; conditions: 2 µM pure (>95%) peptide added 20 min after 10 nM FAM probe; room temperature; native PAGE
Method: (§3) The NZ131 rgg3 gene (Spy 49_0449c) was amplified using gene-specific primers (rgg3_fwd_NdeI/rgg3_rev_BamHI) and cloned into a modified pET expression vector bearing N-terminal His-6 and SUMO tags; the resulting vector, pCA102, was electroporated into E. coli C41(DE3) before each purification. Expression of His6-sumo-rgg3 was induced at an OD600 of 0.8 with 0.5 mM IPTG for six hours at 30°C. Cells were pelleted and suspended in Buffer A (20 mM sodium phosphate buffer, pH 7.5; 1.5 mM MgCl2, 280 mM NaCl, 20 mM imidazole, 10 mM β-mercaptoethanol) with 0.1 mg mL^−1 lysozyme, 0.01 mg mL^−1 DNaseI (Sigma) and Complete EDTA-free protease inhibitor (Roche). Cells were disrupted by sonication on ice, and cellular debris was removed by centrifugation at 45,000 x g for 20 min at 4°C. His6-SUMO-Rgg3 was adsorbed to a HisTrap-HP Nickel column (GE Biosciences), then washed with 50 mM imidazole and eluted with 300 mM imidazole. The eluate was immediately exchanged into fresh Buffer A using a Zeba spin desalting column, 7K MWCO (Thermo Scientific). […]
(§4) All DNA fragments for EMSAs were amplified from chromosomal NZ131 DNA by PCR using primers described in Table S1, with select primers containing 5′-FAM fluorescent tags (Integrated DNA Technologies). […] All gel shifts were detected by fluorescence imaging using a Typhoon PhosphorImager (GE Life Sciences).

Rgg3-Pshp2 DNA complex = assay: EMSA, effect of peptide on Rgg3 binding to Pshp2 probe; set-up: species or system Streptococcus pyogenes NZ131; conditions: 2 µM pure (>95%) peptide added 20 min after 10 nM FAM probe; room temperature; native PAGE
Method: as §3, §4

[1] = tested on: GAS NZ131 biofilm biomass; assay: Biofilm assay, crystal violet staining; type: cell-based, Streptococcus pyogenes NZ131; conditions: 50 nM peptide
Method: Figure 6 Influence of Rgg regulators on biofilm production. SHPs can enhance biofilm biogenesis via the Rgg2/3 regulatory circuit and counter biofilm disassembly promoted by RopB. Crystal violet staining was performed to measure biofilm biomass of NZ131 derivatives grown 48 hours in 24-well polystyrene plates with (dark gray bars) or without (light gray bars) the addition of 50 nM sSHP3-C8. Levels of biofilm production were normalized to that of untreated NZ131 (wild type). Error bars indicate standard error from a minimum of three independent experiments.
Assays were performed as described by Manetti et al, with slight modifications. Briefly, each strain was grown overnight in THY at 30°C, diluted 1∶10 into fresh CDM, and 0.5 mL volumes were aliquoted to three separate wells of a 24-well polystyrene plate. When indicated, synthetic peptide was added to a final concentration of 50 nM. Plates where incubated at 37°C with 5% CO2 for 24 hours, then wells were washed with PBS and fresh CDM (containing peptide, if appropriate) was added. After an additional 24 hours of growth, each well was washed three times with PBS and stained with 0.2% crystal violet for 10 min. Excess crystal violet was aspirated off, and biofilms were washed three times with PBS. The biomass was then suspended in 1% SDS, and the absorbance at 540 nm was measured. Each strain was tested a minimum of three independent times on separate days, and each trial included NZ131 as the reference strain.

[2] = tested on: Rgg3 (Streptococcus pyogenes NZ131 (serotype M49)); assay: EMSA; conditions: 20 mM HEPES pH 7.9, 100 mM KCl, 12.5 mM MgCl2, 0.2 mM EDTA, 0.5 mM DTT, 0.5 mM CaCl2, 50 ug/mL salmon sperm DNA, 0.001 U/uL poly(dI-dC), 100 ug/mL BSA, 12% …
[3] = Δrgg3-shp3 reporter strain JCC168

## -IIIIVGG [sSHP3-C8 without the N-terminal aspartic acid]
Pshp3 luxAB reporter; [3]
  Induction of luciferase activity at Pshp3: complete loss of luciferase activity

## DIIIIVG- [sSHP3-C8 without the C-terminal glycine]
Pshp3 luxAB reporter; [3]
  Induction of luciferase activity at Pshp3: significantly decreased light activity

## DIIIIVGG [sSHP3-C8, synthetic peptide containing the C-terminal eight amino acids of SHP3 (DIIIIVGG)]
Pshp3 luxAB reporter
  Induction of luciferase at Pshp3 in wild-type bacteria: stimulate induction and cross-induction
Pshp3 luxAB reporter; ΔoppD reporter strain JCC163, 50 nM peptide, response restored by pOppD
  Response of Pshp3 reporter in ΔoppD mutant: fails to respond
Pshp3 luxAB reporter; 50 nM peptide
  Response at Pshp3 in Δrgg2 strain: no response
Pshp3 luxAB reporter; [3]
  Induction of luciferase activity at Pshp3: Luciferase induction was also observed
Pshp3 luxAB reporter; Δrgg3-shp3 reporter strain JCC168, Pshp3, 50 nM peptide
  Reporter induction relative to sSHP3 at identical molar concentrations: more than 10 fold
Pshp2 luxAB reporter
  Induction of luciferase at Pshp2 in wild-type bacteria: stimulate induction and cross-induction
Pshp2 luxAB reporter; 50 nM peptide
  Maximal induction at Pshp2 in Δrgg2 strain: ~40 fold
Pshp2 luxAB reporter; Δrgg3-shp3 reporter strain BNL150, 50 nM peptide, compared with wild type BNL148
  Luciferase activity at Pshp2 over time in Δrgg3-shp3 strain: wanes
Rgg3-Pshp3 DNA complex
  Disruption of Rgg3 binding to Pshp3 DNA: Rgg3-DNA complexes were disrupted
Rgg3-Pshp2 DNA complex
  Disruption of Rgg3 binding to Pshp2 DNA: Rgg3-DNA complexes were disrupted
[1]; 48 hours in CDM, 24-well polystyrene plates, normalized to untreated NZ131, minimum of three experiments
  Biofilm formation, wild-type NZ131: two-fold increase
[1]; ΔoppD (JCC135), 48 hours, crystal violet
  Biofilm production, ΔoppD mutant: could not stimulate biofilms
[1]; Δrgg2 (JCC137), 48 hours, crystal violet
  Biofilm production, Δrgg2 mutant: could not stimulate biofilms
[1]; Δrgg3 (JCC131), 48 hours, crystal violet
  Biofilm production, Δrgg3 mutant: did not further enhance biofilms
[1]; Δrgg3-shp3 (JCC132), 48 hours, crystal violet
  Biofilm production, Δrgg3-shp3 mutant: partially complemented
[1]; ΔropB (BNL146), 48 hours, crystal violet
  Biofilm biomass, ΔropB strain: increased six-fold

## EIIIIVGG [sSHP3-C8 with aspartic acid substituted by glutamate]
Pshp3 luxAB reporter; [3]
  Induction of luciferase activity at Pshp3: retained full activity

## NIIIIVGG [sSHP3-C8 with aspartic acid replaced by asparagine]
Pshp3 luxAB reporter; [3]
  Induction of luciferase activity at Pshp3: decreased activity

## Pshp2 probe
[2]
  K half: 100 nM

## Pshp3 probe
[2]
  K half: 100 nM

## sSHP2-C8: synthetic C-terminal eight amino acids of SHP2 (DILIIVGG)
Pshp3 luxAB reporter
  Induction of luciferase at Pshp3 in wild-type bacteria: stimulate induction and cross-induction
Pshp3 luxAB reporter; 50 nM peptide
  Response at Pshp3 in Δrgg2 strain: no response
Pshp2 luxAB reporter
  Induction of luciferase at Pshp2 in wild-type bacteria: stimulate induction and cross-induction
Pshp2 luxAB reporter; 50 nM peptide
  Maximal induction at Pshp2 in Δrgg2 strain: 7 fold
Rgg3-Pshp3 DNA complex
  Disruption of Rgg3 binding to Pshp3 DNA: only induced a small amount of disruption
Rgg3-Pshp2 DNA complex
  Disruption of Rgg3 binding to Pshp2 DNA: only induced a small amount of disruption
